Common to all, as to assay type: cell-based, human
Assay [1] has as its system endogenous s- and t-NASP, histone H3. As to the kind of experiment: Co-immunoprecipitation of sNASP-FLAG-Myc from HeLa S3. To be noted: HeLa S3, transient transfection.
Description: Protein concentrations were measured using Pierce™ 660 nm Protein Assay Reagent (Thermo Scientific) or the Bradford protein assay (Bio-Rad). For immunoprecipitation, 2–3 mg of sNASP-FLAG-myc and sNASP-Strep-HA extracts were incubated for 3 hours at 4°C degrees with 50 μl of anti-Flag M2 (A2220, Sigma) or Anti-TwinStrep Mag-Strep beads (2–4090-002, Iba). After incubation, the beads were washed five times in ice-cold wash buffer (150 mM NaCl, 0.02% Nonidet P40, 50 mM Tris-HCl pH 7.6, 0.1 mM EDTA, 5% glycerol). Bound proteins were eluted with either Laemmli sample buffer 1X (LSB 4X: Tris-HCl (200 mM, pH 6.8), SDS 4%, glycerol (40%), DTT (100 mM)) or biotin elution buffer 1X (BXT buffer, 2–1042-025, Iba), respectively. Western blotting was performed as described previously ([11]). Western blots from three independent biological replicates were quantified using the software ImageJ, version 1.0.
Assay [2] deals with soluble histone H3–H4 pool. The assay is described as follows: Soluble histone pool in HCT116 NASP-dTAG cells (western blot of soluble extracts). Particulars: 5 μM dTAG-13 48 h, complementation with DOX-induced sNASP. On the procedure: Unless stated otherwise cells were grown in DMEM with Glutamax (35050061, Gibco), 10% FBS (12389802, Hyclone) and 1% penicillin/streptomycin (15140122, Gibco) at 37°C with 5% CO2. HeLa S3 and HCT116 pLVX-TetOne-Puro cell lines were grown under Puromycin selection (1 μg/ml, P8833, Sigma). In Hela S3 and HCT116 pLVX-TetOne-Puro, the expression of sNASP-TwinStrep-HA, referred as sNASP-Strep-HA above, wt and mutants was induced by treatment with 2 μg/ml Doxycycline (631311, Clontech) for 24–48 hours. HCT116 NASP-FKBP12^F36V (NASP-dTAG) were treated with 0.2% DMSO (67–68-5, Sigma) or 5 μM dTAG-13 (6605, Tocris) for the indicated times, to induce the degradation of endogenous NASP. […] 24 hours after seeding, cells were treated with either 0.2% DMSO or 5 μM dTAG-13 for 48 hours, and cell viability was quantified with CellTiter-Blue® Cell Viability Assay (G8080, Promega), according to the manufacturer's instructions. […]
Protein concentrations were measured using Pierce™ 660 nm Protein Assay Reagent (Thermo Scientific) or the Bradford protein assay (Bio-Rad). […] Western blots from three independent biological replicates were quantified using the software ImageJ, version 1.0.

The test system of assay [3] is endogenous s- and t-NASP (NASP-FKBP12^F36V). As to the kind of experiment: Depletion of endogenous NASP in NASP-dTAG cells (western blot, immunofluorescence). To be noted: HCT116 NASP-dTAG, 5 μM dTAG-13, 48 h. As to the method: Unless stated otherwise cells were grown in DMEM with Glutamax (35050061, Gibco), 10% FBS (12389802, Hyclone) and 1% penicillin/streptomycin (15140122, Gibco) at 37°C with 5% CO2. HeLa S3 and HCT116 pLVX-TetOne-Puro cell lines were grown under Puromycin selection (1 μg/ml, P8833, Sigma). In Hela S3 and HCT116 pLVX-TetOne-Puro, the expression of sNASP-TwinStrep-HA, referred as sNASP-Strep-HA above, wt and mutants was induced by treatment with 2 μg/ml Doxycycline (631311, Clontech) for 24–48 hours. HCT116 NASP-FKBP12^F36V (NASP-dTAG) were treated with 0.2% DMSO (67–68-5, Sigma) or 5 μM dTAG-13 (6605, Tocris) for the indicated times, to induce the degradation of endogenous NASP. […] 24 hours after seeding, cells were treated with either 0.2% DMSO or 5 μM dTAG-13 for 48 hours, and cell viability was quantified with CellTiter-Blue® Cell Viability Assay (G8080, Promega), according to the manufacturer's instructions.
Protein concentrations were measured using Pierce™ 660 nm Protein Assay Reagent (Thermo Scientific) or the Bradford protein assay (Bio-Rad). […] Western blots from three independent biological replicates were quantified using the software ImageJ, version 1.0. […]

In assay [4] the test system is HCT116 wt and NASP-dTAG cells. The assay is described as follows: Cell viability (CellTiter-Blue). To be noted: 5 μM dTAG-13, 48 h; mean n=3; ns = P>0.05. As to the method: Unless stated otherwise cells were grown in DMEM with Glutamax (35050061, Gibco), 10% FBS (12389802, Hyclone) and 1% penicillin/streptomycin (15140122, Gibco) at 37°C with 5% CO2. HeLa S3 and HCT116 pLVX-TetOne-Puro cell lines were grown under Puromycin selection (1 μg/ml, P8833, Sigma). In Hela S3 and HCT116 pLVX-TetOne-Puro, the expression of sNASP-TwinStrep-HA, referred as sNASP-Strep-HA above, wt and mutants was induced by treatment with 2 μg/ml Doxycycline (631311, Clontech) for 24–48 hours. HCT116 NASP-FKBP12^F36V (NASP-dTAG) were treated with 0.2% DMSO (67–68-5, Sigma) or 5 μM dTAG-13 (6605, Tocris) for the indicated times, to induce the degradation of endogenous NASP. In the complementation experiments, HCT116 cells were simultaneously treated with 2 μg/ml Doxycycline and either 0.2% DMSO or 5 μM dTAG-13 for 48 hours, to ensure a synchronized degradation of the endogenous protein and expression of sNASP-Strep-HA wt or mutants. For cell viability experiments, HCT116 cells were seeded at low confluency in a 24 well plate. 24 hours after seeding, cells were treated with either 0.2% DMSO or 5 μM dTAG-13 for 48 hours, and cell viability was quantified with CellTiter-Blue® Cell Viability Assay (G8080, Promega), according to the manufacturer's instructions.

Assay [5] has as its system HCT116 wt and NASP-dTAG cells. The assay is described as follows: Cell cycle distribution (high-content microscopy, EdU). Particulars: 5 μM dTAG-13, 48 h; mean n=3; ns = P>0.05. As to the method: HCTT116 wt and NASP-dTAG cells were seeded at a density of 3000 cells per well in 96 well plates (6055300, Cell carrier) and treated with either dTAG-13 (5 μM, 48 hours) or DMSO (0.2%, 48 hours). Before fixation, newly replicated DNA was labelled with EdU (20 mins, 10 μM) at 37°C. Cells were washed in ice-cold PBS, fixed (4% paraformaldehyde, 15 mins, 4°C) and washes twice in ice cold PBS. EdU staining followed the Click-iT plus Alexa647-picolyl azide protocol (Thermo Scientific) and DNA was stained with DAPI (4′,6-diamidino-2-phenylindole). Images were acquired on an Olympus ScanR high-content microscope and analysed with ScanR analysis software. Cell cycle gates were defined using mean EdU and total DAPI intensities.

Entries after “also recorded” stand apart in the source; their conditions may differ.

Take “sNASP wild type (wt): epitope-tagged sNASP wild type (FLAG-Myc or Strep-HA)”: the “Pull down of endogenous s- and t-NASP” value in assay [1] was “pulled down both endogenous s- and t- NASP”. For the same molecule, the “Level of soluble histones (H3, H4, H4K5ac)” value in assay [2] was “rescued the soluble histone pool”.
As for “sNASP 6E mutant: sNASP-FLAG-Myc V265E I272E L282E V286E I300E L307E”, in assay [1], the “Pull down of endogenous s- and t-NASP” value is recorded as “impaired”; the “Pull down of histone H3” value is “efficiently pulled down histone H3”.
For the molecule `CC[C@H](C(=O)N1CCCC[C@H]1C(=O)O[C@H](CCc1ccc(OC)c(OC)c1)c1ccccc1OCC(=O)NCCCCCCOc1cccc2c1C(=O)N(C1CCC(=O)NC1=O)C2=O)c1cc(OC)c(OC)c(OC)c1` (some centres unmarked) [dTAG-13], in assay [3], the “Depletion of endogenous NASP” value was “efficient and stable depletion of endogenous s- and t-NASP isoforms”. Moreover, the “Level of soluble histones (H3, H4, H4K5ac)” value in assay [2] was “reduced the pool of soluble histone H3–H4”. Besides, the “Cell viability relative to DMSO” value in assay [4] was “non-significant; also recorded: without dramatic effects on cell cycle progression and cell proliferation”. Also, the Cell cycle distribution result in assay [5] was “non-significant; also recorded: without dramatic effects on cell cycle progression and cell proliferation”.
